Experimental findings from ChEMBL document CHEMBL1201862, “PubChem BioAssay data set” (2004) are described below.

Structures are written as SMILES. Active and inactive are the calls of the source.

Assay [1] addresses T1, Replicative DNA helicase DnaB (Mycobacterium tuberculosis, UniProt P9WMR3).
T1 sequence (P9WMR3 whole entry): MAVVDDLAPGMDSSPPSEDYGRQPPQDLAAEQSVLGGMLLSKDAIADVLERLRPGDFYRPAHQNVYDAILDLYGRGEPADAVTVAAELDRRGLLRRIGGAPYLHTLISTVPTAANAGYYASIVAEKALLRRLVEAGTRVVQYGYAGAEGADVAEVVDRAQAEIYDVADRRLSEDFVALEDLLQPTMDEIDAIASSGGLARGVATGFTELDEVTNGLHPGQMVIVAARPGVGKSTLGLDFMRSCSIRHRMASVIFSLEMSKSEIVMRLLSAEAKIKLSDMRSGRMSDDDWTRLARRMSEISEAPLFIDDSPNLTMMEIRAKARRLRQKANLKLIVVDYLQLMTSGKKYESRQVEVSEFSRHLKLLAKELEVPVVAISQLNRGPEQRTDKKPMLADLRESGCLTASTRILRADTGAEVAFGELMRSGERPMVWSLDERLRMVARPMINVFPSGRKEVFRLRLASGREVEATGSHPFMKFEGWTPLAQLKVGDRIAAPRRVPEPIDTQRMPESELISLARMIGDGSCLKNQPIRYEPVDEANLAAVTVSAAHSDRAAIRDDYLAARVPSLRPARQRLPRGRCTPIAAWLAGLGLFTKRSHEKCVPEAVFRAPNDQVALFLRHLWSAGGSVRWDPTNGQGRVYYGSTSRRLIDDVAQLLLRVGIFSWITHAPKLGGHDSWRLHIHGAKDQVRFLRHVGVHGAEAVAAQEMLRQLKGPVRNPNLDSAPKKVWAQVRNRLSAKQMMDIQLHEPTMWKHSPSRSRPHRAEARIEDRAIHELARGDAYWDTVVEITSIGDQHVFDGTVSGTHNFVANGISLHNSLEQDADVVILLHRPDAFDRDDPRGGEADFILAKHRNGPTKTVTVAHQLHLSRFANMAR
Description: DnaB intein splicing inhibitors, dose response, biochemical, cell-free fluorescence (AID 449749). The format is functional.

A further assay has as its target T2, Leucine aminopeptidase (Plasmodium falciparum 3D7, UniProt Q8IL11).
T2 sequence (Q8IL11 whole entry): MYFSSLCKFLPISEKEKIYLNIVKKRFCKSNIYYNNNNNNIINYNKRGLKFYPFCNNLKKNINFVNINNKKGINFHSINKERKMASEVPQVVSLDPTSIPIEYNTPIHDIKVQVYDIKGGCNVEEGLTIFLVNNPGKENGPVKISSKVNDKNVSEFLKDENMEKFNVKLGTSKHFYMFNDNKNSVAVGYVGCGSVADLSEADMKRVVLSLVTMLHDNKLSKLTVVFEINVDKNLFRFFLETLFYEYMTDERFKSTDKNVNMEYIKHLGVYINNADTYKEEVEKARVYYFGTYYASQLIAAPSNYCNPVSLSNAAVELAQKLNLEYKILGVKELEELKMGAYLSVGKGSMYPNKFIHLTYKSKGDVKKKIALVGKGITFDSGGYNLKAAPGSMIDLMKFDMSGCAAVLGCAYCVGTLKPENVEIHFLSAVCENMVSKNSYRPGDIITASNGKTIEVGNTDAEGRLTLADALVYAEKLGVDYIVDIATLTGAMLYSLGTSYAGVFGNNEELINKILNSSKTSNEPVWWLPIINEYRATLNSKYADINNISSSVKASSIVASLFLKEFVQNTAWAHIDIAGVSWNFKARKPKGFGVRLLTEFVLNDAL
Put plainly: P. falciparum M17LAP inhibitors, primary screen, biochemical, fluorogenic H-Leu-NHMec substrate, 1536-well (AID 1619). Format: functional.

A short description of assay [2]: Intein inhibitors as potential Tuberculosis drugs, a cytotoxicity screen. [Related pubchem assays (depositor defined):AID2221, AID2223, AID434968, AID435010, AID449749, AID449750, AID489010]. Format: functional.
Assay [3] in a line: cells. To be noted: HEK-CNG. Format: functional, cell-based.
The target in the next assay is T3, Protein RecA (Mycobacterium tuberculosis, UniProt P9WHJ3).
T3 sequence (P9WHJ3 whole entry): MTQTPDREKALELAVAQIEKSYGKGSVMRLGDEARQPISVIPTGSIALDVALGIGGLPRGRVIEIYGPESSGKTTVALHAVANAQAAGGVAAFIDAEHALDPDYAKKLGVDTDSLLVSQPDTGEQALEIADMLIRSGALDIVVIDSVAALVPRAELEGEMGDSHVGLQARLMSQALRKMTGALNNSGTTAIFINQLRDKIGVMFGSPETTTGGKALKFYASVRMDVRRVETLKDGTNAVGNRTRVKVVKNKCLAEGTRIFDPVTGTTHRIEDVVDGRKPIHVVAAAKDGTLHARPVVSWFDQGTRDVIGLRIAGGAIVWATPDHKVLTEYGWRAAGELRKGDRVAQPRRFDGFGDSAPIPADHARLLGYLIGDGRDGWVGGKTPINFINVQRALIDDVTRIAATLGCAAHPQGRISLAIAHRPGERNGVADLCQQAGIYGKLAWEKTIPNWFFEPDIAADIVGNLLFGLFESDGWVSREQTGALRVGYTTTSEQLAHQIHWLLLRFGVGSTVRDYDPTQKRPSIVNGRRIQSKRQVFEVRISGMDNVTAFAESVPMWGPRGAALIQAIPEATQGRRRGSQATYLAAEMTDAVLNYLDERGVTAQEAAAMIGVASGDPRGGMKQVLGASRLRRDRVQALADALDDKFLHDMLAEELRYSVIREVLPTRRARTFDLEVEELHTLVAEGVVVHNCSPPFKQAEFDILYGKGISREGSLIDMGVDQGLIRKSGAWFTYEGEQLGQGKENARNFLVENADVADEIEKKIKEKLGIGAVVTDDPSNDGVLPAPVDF
Description: Fluorescence Cell-Free Homogeneous Dose Retest to Identify Inhibitors of RecA-Intein Splicing Activity. [Related pubchem assays (depositor defined):AID2097, AID2223, AID489010, AID492950]. The format is functional.

In another assay the target is T4, Galanin receptor type 3 (Homo sapiens, UniProt O60755).
T4 sequence (O60755 whole entry): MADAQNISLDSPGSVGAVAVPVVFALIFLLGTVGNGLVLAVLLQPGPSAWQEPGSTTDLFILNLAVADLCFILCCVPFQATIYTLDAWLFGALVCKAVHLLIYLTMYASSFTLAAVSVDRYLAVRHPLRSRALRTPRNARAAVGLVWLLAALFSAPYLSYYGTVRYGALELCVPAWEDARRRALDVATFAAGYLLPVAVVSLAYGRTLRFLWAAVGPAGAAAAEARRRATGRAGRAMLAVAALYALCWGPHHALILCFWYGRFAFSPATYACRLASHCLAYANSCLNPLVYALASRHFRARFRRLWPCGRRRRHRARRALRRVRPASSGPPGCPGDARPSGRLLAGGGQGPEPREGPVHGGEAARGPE
Put plainly: Fluorescence-based cell-based primary high throughput dose response assay to identify antagonists of the Galanin Receptor 3 (GalR3). The format is functional.

For assay [4], the target named is Sphingosine 1-phosphate receptor 4 (Homo sapiens, UniProt O95977). Description: potency of S1P4 activators – cell-based, fluorescence, synthesized compounds, late-stage follow-up (AID 463107). The format is functional.
Chain of Sphingosine 1-phosphate receptor 4 (O95977 whole entry): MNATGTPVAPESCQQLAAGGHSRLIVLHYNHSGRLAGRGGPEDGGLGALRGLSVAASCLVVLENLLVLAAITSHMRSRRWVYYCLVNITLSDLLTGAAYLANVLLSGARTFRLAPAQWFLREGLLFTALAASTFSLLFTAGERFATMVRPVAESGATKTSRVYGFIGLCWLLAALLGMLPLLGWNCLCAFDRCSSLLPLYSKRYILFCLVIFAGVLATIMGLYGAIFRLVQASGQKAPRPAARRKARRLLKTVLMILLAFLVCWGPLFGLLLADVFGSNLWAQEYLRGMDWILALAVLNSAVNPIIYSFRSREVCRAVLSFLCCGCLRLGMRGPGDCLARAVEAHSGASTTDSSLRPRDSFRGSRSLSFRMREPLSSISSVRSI
The next assay addresses Hexokinase (Trypanosoma brucei, UniProt Q38C41). Put plainly: Confirmation assay for inhibitors of Trypanosoma brucei hexokinase 1-Analogue-first series. [Related pubchem assays (depositor defined):AID1430, AID1632, AID2516, AID2560, AID2579, AID2600, AID449725, AID492951]. Format: functional.
The target of assay [5] is Voltage-dependent T-type calcium channel subunit alpha-1H (Homo sapiens, UniProt O95180). Description: human CACNA1H calcium influx blockade – cell-based, synthetic library set 1, calcium flux (AID 493022). The format is functional. Background: A change in cytosolic calcium serves as a functional read-out for many receptors and channels.
Chain of Voltage-dependent T-type calcium channel subunit alpha-1H (O95180 whole entry): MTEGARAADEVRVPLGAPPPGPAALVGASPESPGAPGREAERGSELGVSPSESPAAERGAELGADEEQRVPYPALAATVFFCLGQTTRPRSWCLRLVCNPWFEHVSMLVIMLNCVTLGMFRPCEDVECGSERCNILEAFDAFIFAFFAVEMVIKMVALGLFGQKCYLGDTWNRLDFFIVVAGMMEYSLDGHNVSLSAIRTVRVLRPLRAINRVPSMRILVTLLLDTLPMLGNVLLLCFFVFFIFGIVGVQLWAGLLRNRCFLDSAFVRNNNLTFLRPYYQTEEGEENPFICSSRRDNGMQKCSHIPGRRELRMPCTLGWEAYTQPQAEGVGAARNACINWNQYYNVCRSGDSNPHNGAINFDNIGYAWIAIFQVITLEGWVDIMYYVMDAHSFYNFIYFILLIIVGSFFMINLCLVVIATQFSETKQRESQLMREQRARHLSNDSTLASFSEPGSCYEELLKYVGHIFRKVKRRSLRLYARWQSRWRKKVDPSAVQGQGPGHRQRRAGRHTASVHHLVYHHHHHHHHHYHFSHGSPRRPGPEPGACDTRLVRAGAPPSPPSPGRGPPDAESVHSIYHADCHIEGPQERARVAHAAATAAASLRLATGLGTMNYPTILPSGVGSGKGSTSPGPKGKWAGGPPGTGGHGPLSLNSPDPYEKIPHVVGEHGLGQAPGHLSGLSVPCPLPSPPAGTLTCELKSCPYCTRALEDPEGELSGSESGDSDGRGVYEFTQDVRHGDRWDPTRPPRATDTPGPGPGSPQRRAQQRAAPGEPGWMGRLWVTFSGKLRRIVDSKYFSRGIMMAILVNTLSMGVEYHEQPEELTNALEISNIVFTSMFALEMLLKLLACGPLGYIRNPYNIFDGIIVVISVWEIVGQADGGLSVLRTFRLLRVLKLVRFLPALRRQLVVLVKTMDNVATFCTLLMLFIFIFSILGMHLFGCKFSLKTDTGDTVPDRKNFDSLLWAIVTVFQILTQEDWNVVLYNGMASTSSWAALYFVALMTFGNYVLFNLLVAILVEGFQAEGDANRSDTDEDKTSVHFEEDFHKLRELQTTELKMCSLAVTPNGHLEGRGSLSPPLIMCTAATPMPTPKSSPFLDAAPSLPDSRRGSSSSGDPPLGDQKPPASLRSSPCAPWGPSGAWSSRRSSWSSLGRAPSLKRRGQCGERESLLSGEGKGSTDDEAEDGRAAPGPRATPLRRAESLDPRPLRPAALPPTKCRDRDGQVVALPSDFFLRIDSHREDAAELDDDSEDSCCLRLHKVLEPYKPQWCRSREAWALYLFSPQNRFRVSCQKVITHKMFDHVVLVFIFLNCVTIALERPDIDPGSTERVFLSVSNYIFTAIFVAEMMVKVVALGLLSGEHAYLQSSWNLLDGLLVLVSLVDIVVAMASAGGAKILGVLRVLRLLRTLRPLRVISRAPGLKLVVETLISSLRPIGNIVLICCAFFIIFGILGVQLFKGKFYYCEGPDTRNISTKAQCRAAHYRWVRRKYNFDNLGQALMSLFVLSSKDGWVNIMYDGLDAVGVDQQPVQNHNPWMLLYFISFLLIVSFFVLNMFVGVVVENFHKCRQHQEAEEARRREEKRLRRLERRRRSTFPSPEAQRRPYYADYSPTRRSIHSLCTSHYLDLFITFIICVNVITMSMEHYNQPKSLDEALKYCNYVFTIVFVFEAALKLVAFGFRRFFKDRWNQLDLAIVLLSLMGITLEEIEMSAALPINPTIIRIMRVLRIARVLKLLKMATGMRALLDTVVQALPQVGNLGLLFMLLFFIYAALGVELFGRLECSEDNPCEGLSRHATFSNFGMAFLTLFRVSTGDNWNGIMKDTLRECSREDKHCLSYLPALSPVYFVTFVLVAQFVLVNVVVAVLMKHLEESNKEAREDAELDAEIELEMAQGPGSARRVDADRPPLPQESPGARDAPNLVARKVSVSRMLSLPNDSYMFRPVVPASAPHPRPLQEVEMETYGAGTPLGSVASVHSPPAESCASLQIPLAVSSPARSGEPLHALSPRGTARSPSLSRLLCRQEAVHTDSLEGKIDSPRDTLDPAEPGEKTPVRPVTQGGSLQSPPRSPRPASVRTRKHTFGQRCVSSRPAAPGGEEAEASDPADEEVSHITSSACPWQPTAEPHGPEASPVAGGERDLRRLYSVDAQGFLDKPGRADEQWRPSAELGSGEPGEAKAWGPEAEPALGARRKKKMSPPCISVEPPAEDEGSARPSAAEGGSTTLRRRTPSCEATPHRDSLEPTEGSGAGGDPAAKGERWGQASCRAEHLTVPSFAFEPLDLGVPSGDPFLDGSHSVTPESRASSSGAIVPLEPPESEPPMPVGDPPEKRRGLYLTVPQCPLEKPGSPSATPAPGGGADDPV
Assay [6] deals with Complement C1s subcomponent (Homo sapiens, UniProt P09871). Put plainly: Complement C1s ELISA. [Related pubchem assays: 538, 787 ]. The format is functional.
The target in another assay is T5, Coagulation factor XII (Homo sapiens, UniProt P00748).
T5 sequence (P00748 whole entry): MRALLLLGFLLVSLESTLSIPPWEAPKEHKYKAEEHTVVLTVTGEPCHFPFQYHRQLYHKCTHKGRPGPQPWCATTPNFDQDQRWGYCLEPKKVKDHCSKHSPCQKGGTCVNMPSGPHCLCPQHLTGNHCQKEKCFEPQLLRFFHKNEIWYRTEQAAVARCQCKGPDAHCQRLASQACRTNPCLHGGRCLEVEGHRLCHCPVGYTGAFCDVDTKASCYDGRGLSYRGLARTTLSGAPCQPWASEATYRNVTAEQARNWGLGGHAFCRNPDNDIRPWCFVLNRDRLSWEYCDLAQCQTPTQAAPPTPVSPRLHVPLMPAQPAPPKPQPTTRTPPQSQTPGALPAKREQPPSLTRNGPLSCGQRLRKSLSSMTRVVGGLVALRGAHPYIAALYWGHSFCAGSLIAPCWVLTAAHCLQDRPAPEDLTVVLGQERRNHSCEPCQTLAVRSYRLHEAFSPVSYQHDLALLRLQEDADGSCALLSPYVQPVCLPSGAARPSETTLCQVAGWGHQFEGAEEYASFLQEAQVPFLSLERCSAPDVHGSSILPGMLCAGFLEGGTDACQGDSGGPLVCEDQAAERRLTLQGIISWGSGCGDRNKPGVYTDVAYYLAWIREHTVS
Put plainly: activated coagulation factor XII inhibitor potency, concentration-effect curve, cell-free (AID 716). Format: functional.

Assay [7] deals with HEK293. Description: NOD2 signaling inhibitors in MDP-stimulated cells, cell-based, uHTS, luminescence (AID 2001). The format is functional. The conditions noted are these: Homo sapiens.
The target in assay [8] is Nucleotide-binding oligomerization domain-containing protein 2 (Homo sapiens, UniProt Q9HC29). Put plainly: inhibition of NOD2-driven NF-kB reporter – cell-based, luminescence, uHTS, HEK293 (AID 1566). The format is functional.
Chain of Nucleotide-binding oligomerization domain-containing protein 2 (Q9HC29 whole entry, the tested form may be a part): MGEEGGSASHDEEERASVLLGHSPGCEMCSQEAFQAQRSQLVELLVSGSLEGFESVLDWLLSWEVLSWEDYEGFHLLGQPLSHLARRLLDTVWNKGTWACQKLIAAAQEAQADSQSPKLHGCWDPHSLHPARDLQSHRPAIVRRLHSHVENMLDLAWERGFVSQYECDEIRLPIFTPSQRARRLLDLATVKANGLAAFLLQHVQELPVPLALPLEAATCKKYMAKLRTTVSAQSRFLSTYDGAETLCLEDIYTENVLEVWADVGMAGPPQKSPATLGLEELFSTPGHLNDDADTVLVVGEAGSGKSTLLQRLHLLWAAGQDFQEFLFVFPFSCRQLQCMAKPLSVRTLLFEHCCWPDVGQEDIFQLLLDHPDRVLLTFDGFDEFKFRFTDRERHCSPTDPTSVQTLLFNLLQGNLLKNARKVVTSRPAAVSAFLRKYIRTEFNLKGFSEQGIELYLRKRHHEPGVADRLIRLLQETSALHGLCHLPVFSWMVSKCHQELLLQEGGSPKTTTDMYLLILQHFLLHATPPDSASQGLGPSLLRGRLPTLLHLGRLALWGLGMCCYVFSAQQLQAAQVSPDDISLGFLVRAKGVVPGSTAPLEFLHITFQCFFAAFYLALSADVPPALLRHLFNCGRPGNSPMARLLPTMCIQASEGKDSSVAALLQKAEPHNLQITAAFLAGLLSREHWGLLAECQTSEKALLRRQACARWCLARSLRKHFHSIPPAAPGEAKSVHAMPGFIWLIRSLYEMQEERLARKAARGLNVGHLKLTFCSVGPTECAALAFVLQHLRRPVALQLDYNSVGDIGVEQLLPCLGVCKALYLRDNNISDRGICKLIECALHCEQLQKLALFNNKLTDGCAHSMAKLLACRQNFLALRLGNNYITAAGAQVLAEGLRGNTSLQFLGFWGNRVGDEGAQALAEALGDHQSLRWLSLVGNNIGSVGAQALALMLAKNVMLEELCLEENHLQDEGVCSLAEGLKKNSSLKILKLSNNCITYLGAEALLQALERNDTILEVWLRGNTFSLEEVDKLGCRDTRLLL
For assay [9], the system named is HEK293. Description: inhibition of NOD1-driven NF-kB reporter – cell-based, luminescence, uHTS, primary screen (AID 1578). The format is functional. The conditions noted are these: Homo sapiens.
Assay [10] has as its system HEK293. Put plainly: cells. The format is functional, cell-based. The conditions noted are these: Homo sapiens.
Assay [11] relates to HEK293. Put plainly: cells. To be noted: Homo sapiens. Format: functional, cell-based. This is another data set of the same source.
For assay [12], the target named is Glutathione S-transferase omega-1 (Homo sapiens, UniProt P78417). Put plainly: IC50 of human GSTO1 blockade by gel ABPP – biochemical, SE-Rh probe, in-gel fluorescence, powder samples, set 2, late-stage follow-up (AID 463142). Format: functional.
Chain of Glutathione S-transferase omega-1 (P78417 whole entry): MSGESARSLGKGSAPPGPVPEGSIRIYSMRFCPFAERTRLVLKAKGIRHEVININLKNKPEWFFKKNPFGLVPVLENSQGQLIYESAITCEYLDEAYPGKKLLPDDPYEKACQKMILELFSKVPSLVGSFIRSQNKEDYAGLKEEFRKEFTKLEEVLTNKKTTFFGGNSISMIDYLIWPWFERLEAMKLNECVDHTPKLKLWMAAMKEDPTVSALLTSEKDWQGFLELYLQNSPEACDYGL
For the next assay, the system named is T-cell. Description: loss of vesicle association with mouse CD8+ T cells – mouse 2C CD8+ T cells, flow cytometry, dose response (AID 485284). Format: functional. A general note: In flow cytometry, cells or beads pass a laser one at a time.
A short description of assay [13]: THP-1 cell cytotoxicity, dose response, cytotoxicity control for non-replicating M. tuberculosis project (AID 489025). Format: functional.
The nature of assay [14]: cells. The format is functional.
Assay [15] can be described thus: NIH3T3 cell viability loss – ATP luminescence, mouse fibroblasts, counter-screen, dose response (AID 2010).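 Further: cells exposed to compound for about 90 hours before reading.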 Format: functional, cell-based. (Counterscreens check selectivity or assay interference.)
Assay [16] in a line: HepG2 cell cytotoxicity, dose response, cytotoxicity control for non-replicating M. tuberculosis project (AID 489018). The conditions noted are these: Mycobacterium tuberculosis. Format: functional.
A short description of assay [17]: Trypanosoma cruzi growth suppression in host cells – NIH3T3 host cells, beta-gal luminescence, confirmation (AID 2044).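 Further: intracellular parasites grown in NIH/3T3 mouse fibroblasts as host cells; luminescent beta-galactosidase reporter signal from transgenic T. cruzi replicating inside host cells; inhibitors lower the luminescence signal.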 The format is functional, cell-based.
Assay [18] can be described thus: Vero E6 cell cytotoxicity, dose response, cytotoxicity control for non-replicating M. tuberculosis project, secondary assay (AID 492998). The format is functional, VeroE6. The conditions noted are these: Vero C1008.
The test system of a further assay is INS1. Put plainly: INS-1E survival protection against cytokine death – cell-based, luminescence, retest, dose response (AID 449756).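 Further: cell death triggered by IL-1 beta plus TNF-alpha plus IFN-gamma mixture; protective hits raise ATP signal compared with cytokine alone wells.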 The conditions noted are these: Rattus norvegicus. Format: functional.

Chain of Hexokinase (Q38C41 whole entry): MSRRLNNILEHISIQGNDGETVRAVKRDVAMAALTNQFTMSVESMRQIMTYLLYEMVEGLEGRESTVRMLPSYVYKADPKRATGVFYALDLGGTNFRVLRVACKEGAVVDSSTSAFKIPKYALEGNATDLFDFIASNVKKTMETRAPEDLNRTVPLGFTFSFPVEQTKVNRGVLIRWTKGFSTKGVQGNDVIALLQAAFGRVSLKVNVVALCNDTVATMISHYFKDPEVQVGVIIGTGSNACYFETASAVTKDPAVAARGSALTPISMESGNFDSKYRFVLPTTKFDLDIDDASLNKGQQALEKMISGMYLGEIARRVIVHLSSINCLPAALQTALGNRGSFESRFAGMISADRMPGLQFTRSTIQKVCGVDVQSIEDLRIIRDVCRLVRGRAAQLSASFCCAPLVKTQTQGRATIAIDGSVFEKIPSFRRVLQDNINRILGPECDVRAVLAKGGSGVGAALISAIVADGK

Turning to `N#CC(C#N)C(c1ccsc1)c1c(-c2ccccc2)n[nH]c1O` (configuration not stated), the AC50 (commonly the concentration giving half of the maximal activity seen) in assay [1] is 2.85 µM (active). In addition, the IC50 (commonly the concentration needed to halve the response being measured) is 36.7 µM (active) on Leucine aminopeptidase and > 29.9 µM (inactive) on Galanin receptor type 3. In assay [2], the CC50 – broadly, the concentration giving 50% cytotoxicity – is > 40 µM (active). The results for the EC50 in “cells [3]” and at Protein RecA were 17.4 µM (inactive) and 0.468 µM (active), respectively.

As to `COC(=O)c1ncccc1OCCOc1ccc(Cl)cc1Cl`, the EC50 (in general, the midpoint of the concentration-response curve) in assay [4] was > 50 µM (inactive).

Turning to `COC(=O)c1cc(Cl)ccc1NC(=O)c1ccc(OC)cc1`, the IC50 at Hexokinase was > 25 µM (inactive).

Take `O=C(COc1ccc(Cl)cc1)Nc1nnc(-c2ccc(F)cc2)o1`: in [5], the EC50 is 1.8 µM (active).

Consider `O=C(c1csc2c1CCCC2)n1cccn1`, for which the IC50 was > 50 µM (not active) in assay [6] and 5.39 µM (active) at Coagulation factor XII.

With `CCc1nc(SCC(=O)N2CCN(c3ccccc3)CC2)c2oc3ccccc3c2n1`, in [1], the AC50 is 2 µM (active). Also, the IC50 was 5.63 µM (inactive) in the assay with HEK293 [7], > 20 µM (inactive) in the assay with HEK293 [10] and 17.7 µM (active) in the assay on HEK293 [11]. Also, the EC50 in [8] is > 20 µM (inactive); in the assay with HEK293 [9], 4.73 µM (active); on Protein RecA, > 380 µM (inactive).

Consider `C#CCN(CCCN(C(=O)CCl)c1ccc([N+](=O)[O-])cc1)C(=O)C(F)(F)F`, for which the IC50 in assay [12] was 0.023 µM (active).

As to `CC1CCCCC1NC(=O)COC(=O)c1ccc2ncsc2c1` (configuration not stated), the EC50 in the assay with T-cell is 48.4 µM (inactive).

Turning to `Cc1cc(NC2CCCCC2)nc(NCc2ccccc2)n1`, the CC50 in assay [13] was 12.9 µM (active); in assay [16], 16.1 µM (active); in [18], > 20 µM (active). Moreover, the IC50 in “cells [14]” was 10.7 µM (active). Besides, the EC50 was 8.62 µM (active) in [15] and 1.61 µM (active) in [17]. Moreover, the AC50 with INS1 was 2.83 µM (active).
